{"source": "patent US20100093861A1", "about": "“TREATMENT OF INSULIN RESISTANCE OR DISEASES ASSOCIATED WITH INSULIN RESISTANCE” (Stevia ApS, priority 2006, published 2010)", "key": {"Pdx1/Ipf1": {"test_system": "Pdx1/Ipf1", "test": "Relative real time RT-PCR in islets of KKAy mice (Example 3): Pdx1/Ipf1", "assay_type": "in vivo", "details": "9 weeks", "procedure": "(§1) Islets were isolated by the collagenase digestion technique. In brief, the animals were anesthetized with pentobarbital (50 mg/kg intraperitoneally) and midline laparotomy was performed. The pancreas was retrogradely filled with 3 mL ice-cold Hanks balanced salt solution (([HBSS] Sigma Chemical, St Louis, Mo.) supplemented with 0.3 mg/ml collagenase Boehringer Mannheim GmbH, Germany). The pancreas was subsequently removed and incubated for 19 minutes at 37° C. After rinsing in HBSS, the islets were handpicked under a stereomicroscope and immediately transferred to a tubes containing 1 ml Trizol (Gibco/Invitrogene, Calsbad, Calif., USA). The islets isolated from the NMRI mice were incubated overnight at 37° C. and 95% normal atmosphere/5% CO2 in 10 ml RPMI 1640 containing 11.1 mmol/L glucose supplemented with penicillin G and 100 μg/mL streptomycin (all Gibco/Invitrogene, Calsbad, Calif., USA).\nFor each group, islets from 3-4 mice (180-200 islets) were pooled in 1 ml Trizol reagent (Gibco/lnvitrogene, Calsbad, Calif., USA) before RNA purification. Total RNA was extracted according to the manufactures' instructions. RNA was quantified by measuring absorbance at 260 and 280 nm. The quality of the RNA was checked by the Agilent 2100 bioanalyzer (Agilent, Santa Clara, USA). […]"}, "GLUT2": {"test_system": "GLUT2", "test": "Affymetrix gene chip analysis of KKAy islets: GLUT2", "assay_type": "in vivo, mice", "details": "ISV vs. KKAy control islets, 9 weeks", "procedure": "(§2) cRNA preparation and in vitro transcription: In total 6 Affymetrix arrays MOE430 2.0 probe array cartridge were used i.e. for analysis of 3 replicas for the KKAy control group and the ISV group, respectively. Each of the 6 samples consisted of pooled RNA from 3-4 KKAy mice. Preparation of target for hybridization was prepared from 340 ng of total RNA using MessageAmp™ II aRNA Amplification Kits (Ambion), according to the manufacturers instructions. Arrays were hybridised and scanned as described elsewhere (Kruhoffer et al., 2005)."}, "[1]": {"test_system": "total insulin protein content of KKAy islets", "test": "Insulin content of isolated islets from KKAy mice (RIA)", "assay_type": "in vivo", "details": "KKAy mice after 9 weeks treatment", "procedure": "The Insulin content of isolated islet from the KKAy mice was measured using RIA as described for the Insulin assay. Total islet protein was purified from the organic phase during from the RNA Trizol preparation according to the manufactures instruction (Gibco BRL, Life Technologies, Roskilde, DK).\nIn order to clarify if this increased levels of Ins1 mRNA are translated, the total insulin content from the very limited protein fraction collected from the organic phase during RNA preparation from isolated islets from the KKAY and ISV group was measured using RIA (FIG. 17). The insulin content from the ISV group compared to the KKAy control was 2.4 fold (p=0.003) higher, supporting the gene expression analysis."}, "visfatin": {"test_system": "visfatin", "test": "Affymetrix gene chip analysis of KKAy islets: visfatin", "assay_type": "in vivo, mice", "details": "ISV vs. KKAy control islets, 9 weeks", "procedure": "as §2"}, "Pdx1": {"test_system": "Pdx1", "test": "Affymetrix gene chip analysis of KKAy islets: Pdx1", "assay_type": "in vivo, mice", "details": "ISV vs. KKAy control islets, 9 weeks", "procedure": "as §2"}, "C/EBPalpha": {"test_system": "C/EBPalpha", "test": "Affymetrix gene chip analysis of KKAy islets: C/EBPalpha", "assay_type": "in vivo, mice", "details": "ISV vs. KKAy control islets, 9 weeks", "procedure": "as §2"}, "[2]": {"test_system": "isolated NMRI mice islets", "test": "Glucose stimulated insulin secretion (GSIS) from isolated NMRI mice islets", "assay_type": "cell-based", "procedure": "For in vitro studies with steviol and ISV, we included adult female NMRI mice (Taconic, Ry Denmark), all weighing 22-25 g. We used 12 hours light/dark cycle. The Danish Council for Animal experiments has approved the study.\nas §1\nThe NMRI female mice islets were rinsed twice with a modified Krebs-Ringer buffer (KRB) supplemented with 3.3 mmol/L glucose and 0.1% human serum albumin (Sigma). The KRB contained 125 mmol/L NaCl, 5.9 mmol/L KCl, 1.2 MgCl, 1.28 CaCl2 and 25 mmol/L HEPES (Ph 7.4: all Sigma). Single islets were incubated in 100 μL KRB containing glucose (3.3 and 16.7 mmol/L) and steviol/ISV according to the protocols (Jeppesen et al., 2000). After incubation (60 min), 50 μL of the medium was frozen for RIA analysis of insulin."}, "Beta2/neuroD": {"test_system": "Beta2/neuroD", "test": "Affymetrix gene chip analysis of KKAy islets: Beta2/neuroD", "assay_type": "in vivo, mice", "details": "ISV vs. KKAy control islets, 9 weeks", "procedure": "as §2"}, "InsI": {"test_system": "InsI", "test": "Affymetrix gene chip analysis of KKAy islets: InsI", "assay_type": "in vivo, mice", "details": "ISV vs. KKAy control islets, 9 weeks", "procedure": "as §2"}}, "data": [{"smiles": "C[C@@]12CC[C@@H]3[C@@](CC[C@H]4[C@@]3(C)CCC[C@@]4(C)C(=O)O)(CC1=O)C2", "note": "(single isomer, unassigned; ent-16) [ISV, ent-16-ketobeyeran-19-oic acid]", "values": [{"measurement": "up regulation of Pdx1", "setting": "Pdx1/Ipf1; RT-PCR", "value": "~2", "unit": "fold"}, {"measurement": "increased expression of Pdx1/Ipf1, ISV group vs. control group", "setting": "Pdx1/Ipf1; normalized to 18S rRNA", "value": 96, "unit": "%"}, {"measurement": "array: change of GLUT2 expression", "setting": "GLUT2", "value": "upregulation"}, {"measurement": "insulin content of islets compared to the KKAy control, higher", "setting": "[1]", "value": 2.4, "unit": "fold"}, {"measurement": "array: change of visfatin expression", "setting": "visfatin", "value": "no changes"}, {"measurement": "array: change of Pdx1 expression", "setting": "Pdx1", "value": "upregulation"}, {"measurement": "array: change of C/EBPalpha expression", "setting": "C/EBPalpha", "value": "down regulation"}, {"measurement": "effect on insulin secretion at low glucose", "setting": "[2]; 3.3 mmol/L glucose, 60 min incubation", "value": "did not potentiate the insulin secretion"}, {"measurement": "concentration giving apparent maximal effect on glucose stimulated insulin secretion", "setting": "[2]; 16.7 mmol/L glucose, 60 min incubation", "value": "approx. 10^−8 mol/l"}, {"measurement": "potency on GSIS, isosteviol compared with steviol, at higher concentration", "setting": "[2]; 10^−8 mol/l-10^−6 mol/l, 16.7 mmol/l glucose, 60 minutes", "value": "not found any significant difference"}, {"measurement": "potency on GSIS, isosteviol compared with steviol, at low concentration", "setting": "[2]; 10^−10 mol/l, 16.7 mmol/l glucose, 60 minutes", "value": "significantly more potent than steviol"}, {"measurement": "effect on insulin secretion stimulated by 16.7 mmol/L glucose", "setting": "[2]; ISV 10^−12 mol/l-10^−8 mol/l, 60 min incubation", "value": "potentiated insulin secretion"}, {"measurement": "array: change of Beta2/neuroD expression", "setting": "Beta2/neuroD", "value": "upregulation"}, {"measurement": "array: change of InsI expression", "setting": "InsI", "value": "did not show any statistical significant increase"}]}]}
